Each block holds one compound with its values, some of them ahead of it. Non-standard residues stand in square brackets, D forms with d. Residues, ends and D or L forms follow the SMILES beside them. *: point of attachment. Dolaproine = CO[C@@H]([C@@H]1CCCN1)[C@@H](C)C(=O)O; Dil = CC[C@H](C)[C@H](NC)[C@@H](CC(=O)O)OC; X1 = C[C@@H](N*)[C@@H](O)c1ccccc1; NMeV = CN[C@H](C(=O)O)C(C)C
Columns and labels:
[1] = Stability of model cysteine conjugates incubated with excess reduced L-glutathione (GSH), tracked via 1H NMR; format: physicochemical; conditions: 3 equivalents GSH, pH 7.4 buffer, 37° C., after two weeks
Protocol: The stability of conjugate 3 under physiological conditions was investigated by incubation with excess (3 equivalents) reduced L-glutathione (GSH) in pH 7.4 buffer (40% CD-3OD/NaPi—50 mM) at 37° C. The stability was tracked via ^1H NMR and almost no degradation (<5%) was observed after two weeks.

trastuzumab Fab = test: Trastuzumab Fab conjugation kinetic experiment (LC-MS); conditions: 10 and 20 equivalents of linker, after 15 minutes, 37° C.
Protocol: The mixtures were vortexed and incubated at 37° C. for 1 h. A solution of 8 (10 mM in DMSO) was added to each solution (final concentration equal to 10 and 20 equivalents) and the reaction mixture incubated at 37° C. At t=0, 5, 10, 15, 20, 30, 40 and 60 min, 0.5 μL was removed from each reaction, diluted with MilliQ water (9 μL) and quenched with 100 eq. of cysteine (5 mM in DMSO). LC-MS analysis was then used to quantify conversion.

[2] = system: HER2-positive SKBR3 and BT474 cells; test: Cell viability (CellTiter-Glo), HER2-positive cells; format: cell-based; conditions: 96 h, HER2-positive cell lines, FIG. 2
Protocol: (§1) HER2-positive SKBR3 and BT474 cells were obtained from the American Type Culture Collection (ATCC) and HER2-negative MCF7 and T47D cells were obtained from the European Collection of Authenticated Cell Cultures (ECACC) and ATCC, respectively. SKBR3 cells were maintained in high glucose McCoy's 5A medium, supplemented with 10% heat-inactivated foetal-bovine serum (FBS), 50 U/mL penicillin and 50 μg/mL streptomycin. MCF7 cells were maintained in Dulbecco's Modified Eagle Medium (DMEM) supplemented with 10% heat-inactivated fetal-bovine serum (FBS), 2 mM L-glutamine, 50 U/mL penicillin and 50 μg/mL streptomycin. BT474 and T47D cell lines were maintained in RPM11640 medium supplemented with 10% heat-inactivated fetal-bovine serum (FBS), 2 mM L-glutamine, 50 U/mL penicillin and 50 μg/mL streptomycin. All cell lines were incubated at 37° C. with 5% CO2.
(§2) Cells were seeded in 96-well plates for 24 h at 37° C. with 5% CO2. SKBR3 cells were seeded at 15,000 cells/well, BT474 cells were seeded at 20,000 cells/well, MCF7 cells were seeded at 7,500 cells/well and T47D cells were seeded at 10,000 cells/well. […] Cell viability was measured using CellTiter-Glo viability assay (Promega) according to the manufacturer's instructions. Cell viability was plotted as a percentage of untreated cells.

[3] = system: HER2-negative MCF7 and T47D cells; test: Cell viability (CellTiter-Glo), HER2-negative cells; format: cell-based; conditions: 96 h, HER2-negative cell lines, FIG. 2
Protocol: as §1, §2

SMILES: COC(=O)[C@H](CSC1CC(=O)N(Cc2ccccc2)C1=O)NC(=O)OC(C)(C)C (stereo partly drawn) [compound 6, methyl S-(1-benzyl-2,5-dioxopyrrolidin-3-yl)-N-(tert-butoxycarbonyl)-L-cysteinate]
conversion to the glutathione conjugate [1]: > 50%

SMILES: C#CCCCCNc1nc(C=C)cc(C=C)n1 [compound 8, N-(hex-5-yn-1-yl)-4,6-divinylpyrimidin-2-amine]
re-bridging of the Fab chains (trastuzumab Fab): > 90%

SMILES: CC[C@H](C)[C@@H]([C@@H](CC(=O)N1CCC[C@H]1[C@H](OC)[C@@H](C)C(=O)N[C@H](C)[C@@H](O)c1ccccc1)OC)N(C)C(=O)[C@@H](NC(=O)[C@@H](NC)C(C)C)C(C)C [MMAE] (H-[NMeV]V[Dil][Dolaproine]-X1)
cytotoxicity (cell viability) [2]: high levels of cytotoxicity | cytotoxicity (cell viability) [3]: high levels of cytotoxicity

degradation [1]: < 5%
SMILES: COC(=O)[C@H](CSCCc1ccnc(N)n1)NC(=O)OC(C)(C)C [compound 3]
